We go through one compound from paper PMC4447944 (The Journal of Biological Chemistry, 2015).

Molecules are shown by their SMILES.

For one assay, the target named is T1, hCAMK2B (Homo sapiens, UniProt Q13554).
T1 construct: purchased DiscoverX
Briefly: KINOMEscan. The format is binding.

Another assay has as its target T2, hCSNK1A1 (Homo sapiens, UniProt P48729).
T2 construct: purchased DiscoverX (KINOMEscan platform)
Description: KINOMEscan. The format is binding.

The target in another assay is T3, hASK1 (Homo sapiens, UniProt Q99683).
T3 construct: purchased DiscoverX
Description: KINOMEscan. The format is binding.

The next assay concerns the target T4, hDCAMKL1 (Homo sapiens, UniProt O15075).
T4 construct: purchased DiscoverX (KINOMEscan platform)
Briefly: KINOMEscan. The format is binding.

The next assay deals with T5, hFLT3(N841I) (Homo sapiens, UniProt P36888, N841I).
T5 construct: purchased DiscoverX
Briefly: KINOMEscan. The format is binding.

A further assay has as its target T6, hSGK2 (Homo sapiens, UniProt Q9HBY8).
T6 construct: purchased DiscoverX (KINOMEscan platform)
Description: KINOMEscan. In kind it is binding.

In another assay the target is T7, hFLT3-autoinhibited (Homo sapiens, UniProt P36888).
T7 construct: purchased DiscoverX
Briefly: KINOMEscan. The format is binding.

In the next assay the target is hM3 (Homo sapiens, UniProt P20309). Briefly: Calcium Mobilization Agonist (Eurofins-CEREP). To be noted: @ 13.3 μM. A general note: Calcium flux is commonly read through the fluorescence of an indicator in the cells.
Another assay addresses T8, hROS1 (Homo sapiens, UniProt P08922).
T8 construct: purchased DiscoverX (KINOMEscan platform)
Briefly: KINOMEscan. In kind it is binding.

The next assay has as its target hOPRm1 (Homo sapiens, UniProt P35372). Description: cAMP Potentiation (Eurofins-CEREP). To be noted: @ 1 μM.
Another assay deals with hH1 (Homo sapiens, UniProt P35367). Briefly: Ca Mobilization Agonist (Eurofins-CEREP). The conditions noted are these: @ 13.3 μM.
The next assay deals with T9, hABL1(pF317L) (Homo sapiens, UniProt P00519, F317L).
T9 construct: purchased DiscoverX (KINOMEscan platform)
Description: KINOMEscan. The format is binding.

A further assay addresses T10, hTRβ1 (Homo sapiens, UniProt P10828).
T10 construct: Eurofins-CEREP
Description: Nuclear hormone receptor assay (Eurofins-CEREP). The conditions noted are these: read-out: Relative IC50.

In a further assay the target is T11, bacPKNB (Mycobacterium tuberculosis, UniProt P9WI81).
T11 construct: purchased DiscoverX
Briefly: KINOMEscan. In kind it is binding.

For another assay, the target named is T12, hCLK1 (Homo sapiens, UniProt P49759).
T12 construct: purchased DiscoverX
Description: KINOMEscan. The format is binding.

For the next assay, the target named is T13, hGSK3A (Homo sapiens, UniProt P49840).
T13 construct: purchased DiscoverX
Briefly: KINOMEscan. In kind it is binding.

The test system of assay [1] is SMYD2-induced p53 methylation. Description: Cell-based ELISA for p53 Lys370me1, U2OS cells transfected with FLAG-SMYD2. To be noted: Homo sapiens, 15 h. The procedure: Cell lysates were subject to 10% SDS-PAGE and transferred to a PVDF membrane. Each membrane was blocked in Odyssey Blocking Buffer (LI-COR Biosciences) and incubated with monoclonal anti-p53 (D01) antibody (Abcam, ab1101) or rabbit anti-p53 Lys^370me1 antibody (a kind gift from Dr. Shelley Berger) followed by detection with IRDye®680RD goat anti-mouse IgG (LI-COR Biosciences) and IRDye800CW goat anti-rabbit IgG (LI-COR Biosciences) on the Odyssey Imager (LI-COR Biosciences). […] 4–8 h later, cells were treated with 0–25 μM compound for 15 h. […] 24 h later, cells were lysed with 200 μl of MSD Tris Lysis Buffer^TM (Meso Scale Discovery). A MULTI-ARRAY^TM 96-well plate (Meso Scale Discovery, catalog number L15XA-3) was precoated with 2 μg/ml custom-made methyl-p53 antibody (Lampire) in PBS overnight at 4 °C. 150 μl/well MSD Blocking Solution A^TM (final concentration of 3%) was added followed by shaking at room temperature for 1 h. The plate was washed three times with 1× MSD Tris Wash Buffer^TM (Meso Scale Discovery). 0.5 μg of cell lysate in 25 μl/well MSD Tris Lysis Buffer was added, followed by shaking overnight at 4 °C. […] Following a final wash three times with 1× MSD Tris Wash Buffer, 150 μl/well 1× MSD Read Buffer^TM (Meso Scale Discovery) was added, and plates were read on an MSD SECTOR^TM Imager 6000 instrument (Meso Scale Discovery).
(In general: ELISA stands for enzyme-linked immunosorbent assay.)

Another assay addresses T14, hFGR (Homo sapiens, UniProt P09769).
T14 construct: purchased DiscoverX
Description: KINOMEscan. In kind it is binding.

T12 sequence (P49759 whole entry): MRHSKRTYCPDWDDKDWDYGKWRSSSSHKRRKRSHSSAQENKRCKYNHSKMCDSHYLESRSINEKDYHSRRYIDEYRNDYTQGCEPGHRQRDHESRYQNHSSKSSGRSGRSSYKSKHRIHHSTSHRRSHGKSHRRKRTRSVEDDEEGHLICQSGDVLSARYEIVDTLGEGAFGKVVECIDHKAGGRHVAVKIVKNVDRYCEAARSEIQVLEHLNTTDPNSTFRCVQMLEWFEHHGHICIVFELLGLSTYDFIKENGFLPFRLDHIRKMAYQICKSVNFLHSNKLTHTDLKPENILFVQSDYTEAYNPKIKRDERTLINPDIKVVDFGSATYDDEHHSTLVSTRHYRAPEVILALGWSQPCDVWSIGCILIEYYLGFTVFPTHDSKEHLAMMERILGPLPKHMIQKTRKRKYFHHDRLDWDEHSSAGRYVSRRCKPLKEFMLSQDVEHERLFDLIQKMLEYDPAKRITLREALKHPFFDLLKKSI
T2 sequence (P48729 whole entry): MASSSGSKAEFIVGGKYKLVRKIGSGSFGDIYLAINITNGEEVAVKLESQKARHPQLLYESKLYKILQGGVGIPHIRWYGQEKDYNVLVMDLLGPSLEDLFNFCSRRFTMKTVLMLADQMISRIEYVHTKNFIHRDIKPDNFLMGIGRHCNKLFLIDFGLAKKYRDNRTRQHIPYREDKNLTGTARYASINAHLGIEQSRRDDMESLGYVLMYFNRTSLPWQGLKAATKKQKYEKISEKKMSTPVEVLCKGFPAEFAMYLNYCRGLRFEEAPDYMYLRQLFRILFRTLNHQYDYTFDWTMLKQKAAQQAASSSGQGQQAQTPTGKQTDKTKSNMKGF
Sequence of hM3 (P20309 whole entry): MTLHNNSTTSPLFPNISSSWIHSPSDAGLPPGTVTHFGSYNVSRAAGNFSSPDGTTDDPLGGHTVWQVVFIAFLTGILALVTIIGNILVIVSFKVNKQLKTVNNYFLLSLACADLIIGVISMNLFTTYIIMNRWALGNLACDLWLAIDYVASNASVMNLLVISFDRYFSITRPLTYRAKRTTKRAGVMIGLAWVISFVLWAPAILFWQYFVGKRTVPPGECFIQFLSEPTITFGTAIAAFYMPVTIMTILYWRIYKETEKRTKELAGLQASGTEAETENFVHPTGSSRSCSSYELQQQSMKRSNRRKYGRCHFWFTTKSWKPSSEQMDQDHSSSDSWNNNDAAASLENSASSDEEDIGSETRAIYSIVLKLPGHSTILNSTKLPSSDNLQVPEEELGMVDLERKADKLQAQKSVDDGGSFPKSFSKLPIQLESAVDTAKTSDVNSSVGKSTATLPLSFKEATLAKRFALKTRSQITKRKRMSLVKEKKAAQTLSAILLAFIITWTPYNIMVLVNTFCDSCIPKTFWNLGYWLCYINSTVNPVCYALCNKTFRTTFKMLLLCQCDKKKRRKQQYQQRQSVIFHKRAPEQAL
Sequence of hH1 (P35367 whole entry): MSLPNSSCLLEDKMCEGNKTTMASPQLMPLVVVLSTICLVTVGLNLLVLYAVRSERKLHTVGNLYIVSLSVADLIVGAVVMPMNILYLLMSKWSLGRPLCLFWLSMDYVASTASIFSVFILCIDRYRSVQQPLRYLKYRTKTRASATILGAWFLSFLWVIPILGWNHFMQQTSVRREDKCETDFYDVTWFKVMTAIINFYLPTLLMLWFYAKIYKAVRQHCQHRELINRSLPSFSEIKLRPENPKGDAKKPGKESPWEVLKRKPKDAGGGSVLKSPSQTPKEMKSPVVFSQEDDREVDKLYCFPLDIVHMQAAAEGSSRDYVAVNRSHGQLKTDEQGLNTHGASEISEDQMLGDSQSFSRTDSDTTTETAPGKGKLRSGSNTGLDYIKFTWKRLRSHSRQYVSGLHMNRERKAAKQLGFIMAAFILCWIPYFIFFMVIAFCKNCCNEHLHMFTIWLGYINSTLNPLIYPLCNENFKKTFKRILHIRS
T1 sequence (Q13554 whole entry): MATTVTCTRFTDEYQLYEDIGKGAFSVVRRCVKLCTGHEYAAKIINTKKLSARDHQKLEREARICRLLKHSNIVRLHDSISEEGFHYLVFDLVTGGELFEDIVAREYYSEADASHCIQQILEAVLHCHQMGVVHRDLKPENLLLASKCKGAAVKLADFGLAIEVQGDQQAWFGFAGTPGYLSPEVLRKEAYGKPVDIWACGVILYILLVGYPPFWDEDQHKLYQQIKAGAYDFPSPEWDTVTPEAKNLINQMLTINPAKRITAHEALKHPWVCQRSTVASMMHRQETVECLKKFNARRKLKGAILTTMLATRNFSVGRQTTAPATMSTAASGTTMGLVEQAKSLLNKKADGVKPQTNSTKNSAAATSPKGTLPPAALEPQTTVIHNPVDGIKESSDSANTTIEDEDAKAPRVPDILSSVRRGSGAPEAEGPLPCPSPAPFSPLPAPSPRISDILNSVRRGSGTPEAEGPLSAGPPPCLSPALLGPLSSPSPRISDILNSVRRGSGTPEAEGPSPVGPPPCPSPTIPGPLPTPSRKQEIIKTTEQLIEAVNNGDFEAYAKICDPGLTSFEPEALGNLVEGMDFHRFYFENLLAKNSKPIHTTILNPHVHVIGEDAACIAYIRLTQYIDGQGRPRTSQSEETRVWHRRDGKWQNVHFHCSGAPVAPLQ
T8 sequence (P08922 28-2347): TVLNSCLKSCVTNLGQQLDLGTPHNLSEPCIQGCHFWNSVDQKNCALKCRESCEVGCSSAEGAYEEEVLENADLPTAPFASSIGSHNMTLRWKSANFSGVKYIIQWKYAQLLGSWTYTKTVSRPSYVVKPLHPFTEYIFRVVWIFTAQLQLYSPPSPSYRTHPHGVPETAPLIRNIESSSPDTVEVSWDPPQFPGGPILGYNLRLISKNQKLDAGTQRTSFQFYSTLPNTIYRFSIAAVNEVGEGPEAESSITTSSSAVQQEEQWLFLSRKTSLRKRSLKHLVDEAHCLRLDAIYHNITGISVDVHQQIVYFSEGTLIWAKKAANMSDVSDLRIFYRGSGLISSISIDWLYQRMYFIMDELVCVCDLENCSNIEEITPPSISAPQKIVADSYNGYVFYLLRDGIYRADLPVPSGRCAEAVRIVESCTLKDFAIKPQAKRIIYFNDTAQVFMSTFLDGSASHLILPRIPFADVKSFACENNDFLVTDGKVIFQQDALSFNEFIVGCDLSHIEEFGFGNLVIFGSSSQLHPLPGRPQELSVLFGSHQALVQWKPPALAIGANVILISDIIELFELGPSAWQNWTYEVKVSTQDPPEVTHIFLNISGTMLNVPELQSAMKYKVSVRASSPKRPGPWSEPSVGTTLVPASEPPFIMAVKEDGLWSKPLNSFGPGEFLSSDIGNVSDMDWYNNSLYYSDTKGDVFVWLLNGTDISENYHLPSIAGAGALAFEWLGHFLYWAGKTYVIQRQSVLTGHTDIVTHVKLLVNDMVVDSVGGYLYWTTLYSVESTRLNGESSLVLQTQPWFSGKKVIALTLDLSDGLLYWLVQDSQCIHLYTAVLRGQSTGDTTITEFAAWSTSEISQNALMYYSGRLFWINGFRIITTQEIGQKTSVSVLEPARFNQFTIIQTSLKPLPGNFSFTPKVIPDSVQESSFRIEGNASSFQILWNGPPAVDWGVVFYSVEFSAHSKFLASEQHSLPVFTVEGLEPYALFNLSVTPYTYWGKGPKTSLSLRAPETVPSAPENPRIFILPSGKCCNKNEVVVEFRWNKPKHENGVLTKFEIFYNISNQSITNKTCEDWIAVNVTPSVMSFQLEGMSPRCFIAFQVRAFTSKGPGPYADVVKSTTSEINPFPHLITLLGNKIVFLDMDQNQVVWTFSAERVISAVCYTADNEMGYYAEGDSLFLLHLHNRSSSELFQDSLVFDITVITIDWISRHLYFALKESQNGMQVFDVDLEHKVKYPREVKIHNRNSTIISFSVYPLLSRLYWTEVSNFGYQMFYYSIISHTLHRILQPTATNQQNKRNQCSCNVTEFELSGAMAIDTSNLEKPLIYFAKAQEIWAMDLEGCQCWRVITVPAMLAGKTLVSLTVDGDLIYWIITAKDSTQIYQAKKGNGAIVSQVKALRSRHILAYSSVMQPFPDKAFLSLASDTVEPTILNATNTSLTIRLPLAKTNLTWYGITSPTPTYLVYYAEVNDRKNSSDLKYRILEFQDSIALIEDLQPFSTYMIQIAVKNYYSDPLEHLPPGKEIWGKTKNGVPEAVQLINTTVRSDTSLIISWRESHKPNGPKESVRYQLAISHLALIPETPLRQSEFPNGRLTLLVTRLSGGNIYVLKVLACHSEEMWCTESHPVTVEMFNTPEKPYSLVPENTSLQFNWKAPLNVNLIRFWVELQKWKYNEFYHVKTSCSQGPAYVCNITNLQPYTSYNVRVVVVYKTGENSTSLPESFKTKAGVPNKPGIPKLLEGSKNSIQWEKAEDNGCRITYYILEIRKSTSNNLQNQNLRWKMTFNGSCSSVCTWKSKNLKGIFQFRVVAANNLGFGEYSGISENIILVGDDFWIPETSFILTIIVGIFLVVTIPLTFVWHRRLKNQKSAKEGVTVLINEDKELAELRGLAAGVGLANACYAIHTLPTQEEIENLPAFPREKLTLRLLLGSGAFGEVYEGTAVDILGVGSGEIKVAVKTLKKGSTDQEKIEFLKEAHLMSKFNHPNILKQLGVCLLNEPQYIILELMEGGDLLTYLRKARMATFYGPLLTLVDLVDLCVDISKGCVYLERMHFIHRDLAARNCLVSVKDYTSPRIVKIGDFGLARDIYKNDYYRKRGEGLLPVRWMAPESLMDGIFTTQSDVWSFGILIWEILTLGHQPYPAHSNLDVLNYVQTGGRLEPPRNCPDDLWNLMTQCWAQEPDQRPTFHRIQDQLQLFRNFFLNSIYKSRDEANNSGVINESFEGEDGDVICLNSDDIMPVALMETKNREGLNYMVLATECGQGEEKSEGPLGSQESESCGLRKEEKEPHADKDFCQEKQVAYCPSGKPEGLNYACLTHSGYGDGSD

Usually IC50 stands for the midpoint of a concentration-inhibition curve. In the case of `Cc1cn(CCN2CCN(c3ccccc3-c3cc(C#N)cc(C(=O)NCCCN4CCCC4)c3)CC2)c2ccccc12` [LLY-507, 3-cyano-5-{2-[4-[2-(3-methylindol-1-yl)ethyl]piperazin-1-yl]-phenyl}-N-[(3-pyrrolidin-1-yl)propyl]benzamide], the IC50 against hCAMK2B, against hCSNK1A1, against hASK1, against hDCAMKL1, on hFLT3(N841I) and against hSGK2 was > 20 µM in each case. Further, the IC50 against hFLT3-autoinhibited was > 20 µM; at hROS1, > 20 µM; at hABL1(pF317L), > 20 µM; on hTRβ1, > 10 µM; at bacPKNB, > 20 µM; against hCLK1, > 20 µM. The concentration for half-maximal inhibition (IC50) was > 20 µM against hGSK3A, 0.6 µM in assay [1] and > 20 µM against hFGR. Besides, the “% Effect, Stimulation” value is -1.4% at hM3 and -2.8% on hH1. In addition, the “% Effect, Potentiation” value at hOPRm1 was determined as 9.6%.
